The text below walks through data of paper PMC3078936 (PLoS ONE, 2011).

pKd: −log10 of the molar value.

For the experiment, the target named is T1, DYNLL1 (Homo sapiens, UniProt P63167).
T1 construct: 6xHis (N); made in house; host or cells: E. coli BL21(DE3)Star
As to the kind of experiment: Isothermal titration calorimetry of peptide/protein binding to DYNLL1. Conditions: PBS + 3 mM 2-mercaptoethanol pH 7.4, 299 K; for ΔH: ITC binding enthalpy; for -TΔS: ITC entropy term; for pKd: ITC, 15 µM DYNLL1 in the cell, A + B to AB model, dimeric peptides reach the dynamic range limit of ITC. The method, then: Binding parameters of the in vitro evolved Ac-[…] and naturally evolved Ac-DKSTQTD consensus peptides were determined by isothermal titration calorimetry (ITC). Synthetic peptides were used and N-terminal acetylation was applied to better mimic a non-terminal peptide motif by avoiding the positively charged N-terminus. In order to elucidate the particular contribution of Val-5 to the binding affinity, several control peptides were produced. The in vitro evolved Val-5 was replaced with a glycine (Gly-5) to assess side chain function. In a further truncated variant the entire amino acid residue was replaced with an acetate group (Ac-5) to assess the function of the amide group at position −5. The same variations of Val-5, Gly-5 or Ac-5 were also introduced in the framework of the naturally evolved consensus peptide. DYNNL1 binding of all six variants was analyzed by ITC. In all measurements the stoichiometry of binding was 1∶1 (2 peptides binding to one homodimer DYNNL1). The binding was enthalpy-driven and was accompanied with unfavorable entropy change. Ac-5 versions of both the natural and the in vitro evolved consensus peptide had binding affinities in the micromolar range. Replacing the acetyl group with Gly-5 led to a tenfold affinity increase with both peptides.
All peptides and DYNLL1 were dialyzed overnight in PBS buffer supplemented with 3 mM 2-mercaptoethanol (pH 7.4). A typical binding experiment involved 15 µM DYNLL1 in the cell and 30–40 injections varying between of 3–5 µl peptide solution. For each experiment the thermodynamic parameters were determined at 299 K. We used a VP-ITC instrument from Microcal and the data were fitted by the software package Origin 5.0 (OriginLab) using the simple A + B to AB binding model. The signal from an initial 2 µl injection was eliminated. The equilibration time between injections was 900 sec.
(In ITC the heat of successive injections is recorded.)

T1 sequence (P63167 whole entry): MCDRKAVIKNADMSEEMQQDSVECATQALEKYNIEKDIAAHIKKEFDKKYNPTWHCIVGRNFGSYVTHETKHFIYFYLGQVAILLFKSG

“dimeric-GSVSRGTQTE [recombinant GCN4 leucine zipper-fused, dimerized in vitro evolved consensus peptide]”: the ΔH was -15.5 kcal/mol; the “-TΔS” value was less than 4.21 kcal/mol; the negative logarithm of the Kd (pKd) (in general, the negative decadic logarithm of the Kd, by convention in mol/L) was greater than 8.15.
The corresponding values for “dimeric-GSVDKSTQTD [recombinant GCN4 leucine zipper-fused, dimerized Val-5 natural consensus peptide]” are -21 kcal/mol, less than 10 kcal/mol and greater than 8.05.
For “dimeric-GSGDKSTQTD [recombinant GCN4 leucine zipper-fused, dimerized Gly-5 natural consensus peptide]” the same measures were -18.2 kcal/mol, less than 7.03 kcal/mol and greater than 8.15.
In the case of “dimeric-GSGSRGTQTE [recombinant GCN4 leucine zipper-fused, dimerized Gly-5 in vitro evolved peptide]”, the ΔH was -16.6 kcal/mol, the “-TΔS” value was less than 4.92 kcal/mol and the pKd is greater than 8.52.
